What all share (assay): NCI tumour cell line growth inhibition, 48 h
Assay [1] relates to HCT-116 colon.
The test system of assay [2] is SF-539 CNS.
The test system of assay [3] is MDA-MB-231 breast.
For assay [4], the system named is MCF7 breast.
Assay [5] deals with U251 CNS.
Assay [6] has as its system UACC-62 melanoma.
Assay [7] deals with SK-OV-3 ovarian.
The subject of assay [8] is OVCAR-8 ovarian.
For assay [9], the system named is ACHN renal.
Assay [10] deals with 786-0 renal.
Assay [11] has as its system HCC-2998 colon.
For assay [12], the system named is HS 578T breast.
Assay [13] relates to KM12 colon.
The test system of assay [14] is M14 melanoma.
The test system of assay [15] is SK-MEL-2 melanoma.
For assay [16], the system named is PC-3 prostate.
The subject of assay [17] is K-562 leukemia.
In assay [18] the test system is MALME-3M melanoma.
The subject of assay [19] is NCI-H23 lung.
The test system of assay [20] is RXF 393 renal.

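All cell lines were grown in 96-well plates and treated with compound for 48 hours. At the TGI there is no net growth.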

Consider `CC12O[C@]3([C@H](C(=O)N4CCOC43C)[C@H]1Cl)[C@H]1O[C@H]12` (stereo not given in full), for which the TGI in assay [1], in assay [2], in assay [3], in [4], in assay [5] and in assay [6] was > 100 µM throughout. The TGI in assay [7], in [8], in assay [9], in assay [10], in assay [11] and in assay [12] was > 100 µM in each case. In addition, the TGI in [13], in [14], in assay [15], in assay [16] and in [17] was > 100 µM each time.

For `O=C(O)c1cc(CC2Cc3cc4c(cc3C2=O)CCC4)cc2c1CCC2` (stereo not given), the TGI in [1], in [2], in assay [3], in assay [4], in [5] and in assay [18] was > 100 µM in each case. Also, the TGI in assay [6], in assay [7], in assay [8], in assay [9], in assay [19] and in assay [10] was > 100 µM in each case. Also, the TGI in assay [11], in assay [12], in assay [13], in [14], in [15] and in assay [16] was > 100 µM each time. The TGI in assay [17] is > 100 µM.

Consider `COc1cc(C(=O)/C=C/c2ccc(OCC#N)cc2)cc(OC)c1OC`, for which the TGI in assay [1] was found to be 26.9 µM; in assay [2], 33.2 µM; in assay [4], 23.3 µM; in assay [5], 33.4 µM; in assay [18] it was 33 µM; in assay [6] it was 48.5 µM. In addition, the TGI is > 100 µM in assay [7]; > 100 µM in [8]; 51.8 µM in assay [9]; 43.2 µM in assay [19]; 37.9 µM in assay [10]; 30.6 µM in assay [11]. The TGI was 34.1 µM in assay [20]; > 100 µM in assay [12]; 32 µM in assay [13]; 38 µM in [16]; 86.9 µM in assay [17].

As for `CCOC(=O)c1cc(=O)c2ccnc3c2n1CCS3`, the TGI in [1], in assay [2], in assay [3], in assay [4], in assay [5] and in assay [6] was > 100 µM throughout. Besides, the TGI in assay [7], in assay [8], in [9], in assay [19], in [10] and in assay [12] was > 100 µM throughout. For the same compound, the TGI in [13], in assay [14], in assay [15] and in [16] was > 100 µM throughout.

For `N#C[C@@H](c1nc2ccccc2s1)c1ncccc1[N+](=O)[O-]`, the TGI in assay [1] was 14 µM; in assay [3], 17.4 µM; in assay [4], 17.3 µM; in [5], 11.7 µM; in assay [6] it was > 31.6 µM; in assay [7] it was > 61.1 µM. In addition, the TGI was 20.6 µM in [8]; > 31.6 µM in assay [9]; 16.1 µM in assay [19]; 17.2 µM in assay [10]; 28.5 µM in assay [11]; > 31.6 µM in assay [20]. Further, the TGI in [12] was 27.6 µM; in [13], > 62.9 µM; in [14], > 31.6 µM; in [15], > 31.6 µM; in assay [16], 18.1 µM.

Regarding `COC(=O)C1=C(C)C(=O)[C@]23C(CCCC[C@H]12)C(=O)[C@H](C(=O)OC)C3C` (stereo not given in full), the TGI in assay [1], in assay [2], in assay [3], in [4], in assay [5] and in [18] was > 100 µM throughout. Besides, the TGI in [6], in assay [7], in assay [8], in [9], in [19] and in [10] was > 100 µM throughout. The TGI in assay [11], in [12], in [13], in assay [14], in assay [16] and in assay [17] was > 100 µM each time.

As to `CC(=O)N1C(OC(C)C)CC(C)N1c1ccccc1` (stereo not given), the TGI in [1], in assay [2], in assay [3], in assay [4], in assay [18] and in assay [8] was > 10 µM each time. The TGI in assay [9], in [19], in [10], in assay [11], in [20] and in [12] was > 10 µM each time. In addition, the TGI in assay [14], in assay [15], in assay [16] and in assay [17] was > 10 µM each time.

For the compound `CN1C2=C(CC3=C1CC(C)(C)CC3=O)C(=O)CC(C)(C)C2`, the TGI in assay [2], in assay [4], in [5], in assay [6], in assay [7] and in assay [8] was > 100 µM each time. Also, the TGI in assay [9], in assay [19], in assay [10], in assay [11], in assay [12] and in [13] was > 100 µM throughout. The TGI in [14], in assay [16] and in [17] was > 100 µM in each case.
